In patent US9125835B2, “Synergistic combinations to reduce particle dose for targeted treatment of cancer and its metastases” (priority 2010, dated 2015):

Assays:
[1] = In vivo CPT plasma concentrations after single IV injection; conditions: IV injection of free CPT (2 mg/kg)
Method: Values are reported as mean ±SD.
(§1) This was determined by preparing PEGylated 6 μm polystyrene MPs with three copies of the norvaline (Nva) α-amino acid prodrug of CPT. […] Anti-cancer efficacy was evaluated in an orthotopic rat lung cancer model and compared to a bolus injection of CPT.

A549 cell = experiment: Anti-cancer efficacy in orthotopic rat lung cancer model (A549 cell inoculation); assay type: in vivo, nude rats; conditions: IV every 3 days for 27 days; free CPT 2 mg/kg, CPT-Nva-MPs 0.2 mg/kg CPT
Method: as §1
The treatment was conducted every 3 days for 27 days. The day after the last treatment, all animals were euthanized, and organs (lung, heart, […], spleen and […]) were dissected and weighed. The organs were fixed in 10% neutral buffered formalin for H & E staining.

caspase 3/7 = conditions: A549 cells, 24 hours; 1 μM paclitaxel alone or with 1 mM R-ALA
Method: Cell viability (FIG. 11—left) and caspase 3/7 activation (apoptosis) (FIG. 11—right) of A549 cells were evaluated in response to a low dose (˜EC5-EC20) of paclitaxel alone (1 μM), low dose paclitaxel +R-ALA (1 mM) or a solvent control (0.1% DMSO). Cell viability was determined with AlamarBlue® assay. Caspase 3/7 activation was determined as a measure of apoptosis using a fluorometric assay kit (Biovision, Mountain View, Calif.). A549 cells were treated with solvent control (0.1% DMSO), 1 μM paclitaxel, and 1 μM paclitaxel+1 mM R-ALA for 24 hours.

SMILES: CC[C@@]1(O)C(=O)OCc2c1cc1n(c2=O)Cc2cc3ccccc3nc2-1 [free CPT, camptothecin]
- systemic exposure (CPT plasma) [1]: high but short-lived systemic exposures
- areas of lung cancer versus untreated animals (A549 cell): smaller areas of lung cancer

SMILES: CC(=O)O[C@H]1C(=O)[C@@]2(C)[C@H]([C@H](OC(=O)c3ccccc3)[C@]3(O)C[C@H](OC(=O)[C@H](O)[C@@H](NC(=O)c4ccccc4)c4ccccc4)C(C)=C1C3(C)C)[C@]1(OC(C)=O)CO[C@@H]1C[C@@H]2O [paclitaxel]
- caspase 3/7 activation relative to controls (caspase 3/7): 1.5 fold
